{"source": "PubChem BioAssay AID1259411", "about": "(Chemical Carcinogenesis Research Information System (CCRIS), 2018)", "tested_on": "rodent carcinogenicity bioassays, tumor incidence", "assay": "CCRIS carcinogenicity studies", "how_it_was_run": "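NCI-built, expert-reviewed records of carcinogenicity and related test outcomes (mutagenicity, tumor promotion/inhibition) compiled from published and report sources, historical span 1985-2011, not updated.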", "note": "Calls of active or inactive are those of the source. No rule for the calls is given here.", "data": [{"smiles": "Cc1ccc2c(c1)[C@H](Nc1nc(N)nc(C(C)F)n1)[C@@H](C)C2", "note": "(some centres undefined)", "values": [{"measurement": "carcinogen call", "setting": "Species: Mouse, Strain/Sex: C57BL/6J/Female (50/Group), Route: Oral, Dose: 0, 8.4, 42, 168 mg/kg/day of 93.14% indaziflam in diet for 18 mo, study duration 18 mo, Dose: 0, 8.4, 42, 168 mg/kg/day of 93.14% indaziflam in diet for 18 mo, study duration 18 mo", "value": "inactive; negative"}, {"measurement": "carcinogen call", "setting": "Species: Mouse, Strain/Sex: C57BL/6J/Male (50/Group), Route: Oral, Dose: 0, 6.8, 34, 142 mg/kg/day of 93.14% indaziflam in diet for 18 mo, study duration 18 mo, Dose: 0, 6.8, 34, 142 mg/kg/day of 93.14% indaziflam in diet for 18 mo, study duration 18 mo", "value": "inactive; negative"}, {"measurement": "carcinogen call", "setting": "Species: Rat, Strain/Sex: Wistar/Female (60/Group), Route: Oral, Dose: 0, 17, 167, 661 (wks 0-40), 452 (overall) mg/kg/day of 93.14% indaziflam in diet for 2 yr, study duration 2 yr, Dose: 0, 17, 167, 661 (wks 0-40), 452 (overall) mg/kg/day of 93.14% indaziflam in diet for 2 yr, study duration 2 yr", "value": "inactive; negative"}, {"measurement": "carcinogen call", "setting": "Species: Rat, Strain/Sex: Wistar/Male (60/Group), Route: Oral, Dose: 0, 12, 118, 414 mg/kg/day of 93.14% indaziflam in diet for 2 yr, study duration 2 yr, Dose: 0, 12, 118, 414 mg/kg/day of 93.14% indaziflam in diet for 2 yr, study duration 2 yr", "value": "inactive; negative"}]}, {"smiles": "O=NN1CCOC(O)C1", "note": "(centres undefined)", "values": [{"measurement": "carcinogen call", "setting": "Species: MOUSE, Strain/Sex: STRAIN-A/FEMALE, Route: ORAL, Dose: 0, 0.2 UMOL/ML IN DRINKING WATER FOR 10 WK (TOTAL DOSE: 0; 53 UMOL) FOLLOWED BY TAP WATER FOR 20 WK (STUDY DURATION: 30, Dose: 0, 0.2 UMOL/ML IN DRINKING WATER FOR 10 WK (TOTAL DOSE: 0; 53 UMOL) FOLLOWED BY TAP WATER FOR 20 WK (STUDY DURATION: 30, Tumor Site: Type of Lesion: LUNG: TUMORS", "value": "active; positive"}, {"measurement": "carcinogen call", "setting": "Species: RAT, Strain/Sex: F344/FEMALE, Route: GAVAGE, Dose: 0, 22 MG/WK FOR A TOTAL DOSE OF 8.5 MMOL (STUDY DYRATION: 110 WK), Tumor Site: Type of Lesion: LIVER: TUMOR, LUNG: TUMOR", "value": "active; positive"}, {"measurement": "carcinogen call", "setting": "Species: RAT, Strain/Sex: F344/FEMALE, Route: ORAL, Dose: 0, 15, 30 MG/L IN DRINKING WATER 5 D/WK FOR 50 WK (TOTAL DOSE: 0; 0.6; 1.2 MMOL) (STUDY DURATION: 124 WK), Dose: 0, 15, 30 MG/L IN DRINKING WATER 5 D/WK FOR 50 WK (TOTAL DOSE: 0; 0.6; 1.2 MMOL) (STUDY DURATION: 124 WK)", "value": "inactive; negative"}]}, {"smiles": "CNc1ccc(N(CCO)CCO)cc1[N+](=O)[O-]", "values": [{"measurement": "carcinogen call", "setting": "Species: MOUSE, Strain/Sex: B6C3F1/FEMALE, Route: ORAL, Dose: 0, 3000, 6000 PPM IN DIET FOR 103 WK FOR 103 WK (STUDY DURATION: 105 WK), Dose: 0, 3000, 6000 PPM IN DIET FOR 103 WK FOR 103 WK (STUDY DURATION: 105 WK), Tumor Site: Type of Lesion: LIVER: HEPATOCELLULAR CARCINOMA, HEPATOCELLULAR ADENOMA OR CARCINOMA", "value": "active; positive"}, {"measurement": "carcinogen call", "setting": "Species: MOUSE, Strain/Sex: B6C3F1/MALE, Route: ORAL, Dose: 0, 1500, 3000 PPM IN DIET FOR 103 WK FOR 103 WK (STUDY DURATION: 105 WK), Dose: 0, 1500, 3000 PPM IN DIET FOR 103 WK FOR 103 WK (STUDY DURATION: 105 WK), Tumor Site: Type of Lesion: LIVER: HEPATOCELLULAR ADENOMA, HEPATOCELLULAR CARCINOMA, THYROID GLAND: FOLLICULAR CELL ADENOMA", "value": "active; positive"}, {"measurement": "carcinogen call", "setting": "Species: RAT, Strain/Sex: F344/FEMALE, Route: ORAL, Dose: 0, 1500, 3000 PPM IN DIET FOR 103 WK FOR 103 WK (STUDY DURATION: 105 WK), Dose: 0, 1500, 3000 PPM IN DIET FOR 103 WK FOR 103 WK (STUDY DURATION: 105 WK), Tumor Site: Type of Lesion: LUNG: ALVEOLAR/BRONCHIOLAR ADENOMA OR CARCINOMA, UTERUS: ENDOMETRIAL STROMAL POLYP", "value": "active; positive"}, {"measurement": "carcinogen call", "setting": "Species: RAT, Strain/Sex: F344/MALE, Route: ORAL, Dose: 0, 1500, 3000 PPM IN DIET FOR 103 WK (STUDY DURATION: 105 WK), Dose: 0, 1500, 3000 PPM IN DIET FOR 103 WK (STUDY DURATION: 105 WK), Tumor Site: Type of Lesion: LIVER: HEPATOCELLULAR NEOPLASTIC NODULE OR CARCINOMA", "value": "equivocal"}]}, {"smiles": "CC(CN1c2ccccc2Sc2ccccc21)N(C)C", "note": "(centres undefined)", "values": [{"measurement": "carcinogen call", "setting": "Species: MOUSE, Strain/Sex: B6C3F1/FEMALE, Route: GAVAGE, Dose: 0, 3.75, 7.5, 15 MG/KG IN WATER 1/D 5 D/WK FOR 103 WK (STUDY DURATION: 106 WK), Dose: 0, 3.75, 7.5, 15 MG/KG IN WATER 1/D 5 D/WK FOR 103 WK (STUDY DURATION: 106 WK)", "value": "inactive; negative"}, {"measurement": "carcinogen call", "setting": "Species: MOUSE, Strain/Sex: B6C3F1/MALE, Route: GAVAGE, Dose: 0, 11.25, 22.5, 45 MG/KG IN WATER 1/D 5 D/WK FOR 103 WK (STUDY DURATION: 106 WK), Dose: 0, 11.25, 22.5, 45 MG/KG IN WATER 1/D 5 D/WK FOR 103 WK (STUDY DURATION: 106 WK)", "value": "inactive; negative"}, {"measurement": "carcinogen call", "setting": "Species: RAT, Strain/Sex: F344/FEMALE, Route: GAVAGE, Dose: 0, 8.3, 16.6, 33.3 MG/KG IN WATER 1/D 5 D/WK FOR 103 WK (STUDY DURATION: 106 WK), Dose: 0, 8.3, 16.6, 33.3 MG/KG IN WATER 1/D 5 D/WK FOR 103 WK (STUDY DURATION: 106 WK)", "value": "inactive; negative"}, {"measurement": "carcinogen call", "setting": "Species: RAT, Strain/Sex: F344/MALE, Route: GAVAGE, Dose: 0, 8.3, 16.6, 33.3 MG/KG IN WATER 1/D 5 D/WK FOR 103 WK (STUDY DURATION: 106 WK), Dose: 0, 8.3, 16.6, 33.3 MG/KG IN WATER 1/D 5 D/WK FOR 103 WK (STUDY DURATION: 106 WK)", "value": "inactive; negative"}]}, {"smiles": "N[C@H](CCC(=O)N[C@H](Cc1c[nH]c2ccccc12)C(=O)O)C(=O)O", "values": [{"measurement": "carcinogen call", "setting": "Species: MOUSE, Strain/Sex: C57BL.CBA, Route: SC, Dose: 0.0145 AND 0.145 MG/KG 2X WK FOR 104 WK (STUDY DURATION: 104 WK)", "value": "inactive; negative"}, {"measurement": "carcinogen call", "setting": "Species: RAT, Strain/Sex: WISTAR, Route: SC, Dose: 0.0145 AND 0.145 MG/KG 2X WK FOR 104 WK (STUDY DURATION: 104 WK)", "value": "inactive; negative"}]}, {"smiles": "Nc1ccc(N)cc1", "values": [{"measurement": "carcinogen call", "setting": "Species: MOUSE, Strain/Sex: B6C3F1/FEMALE, Route: ORAL, Dose: 0, 625, 1250 PPM IN DIET, Dose: 0, 625, 1250 PPM IN DIET", "value": "inactive; negative"}, {"measurement": "carcinogen call", "setting": "Species: MOUSE, Strain/Sex: B6C3F1/MALE, Route: ORAL, Dose: 0, 625, 1250 PPM IN DIET, Dose: 0, 625, 1250 PPM IN DIET", "value": "inactive; negative"}, {"measurement": "carcinogen call", "setting": "Species: RAT, Strain/Sex: F344/FEMALE, Route: ORAL, Dose: 0, 625, 1250 PPM IN DIET, Dose: 0, 625, 1250 PPM IN DIET", "value": "inactive; negative"}, {"measurement": "carcinogen call", "setting": "Species: RAT, Strain/Sex: F344/MALE, Route: ORAL, Dose: 0, 625, 1250 PPM IN DIET, Dose: 0, 625, 1250 PPM IN DIET", "value": "inactive; negative"}]}, {"smiles": "CC(COc1ccc(C(C)(C)C)cc1)OS(=O)OCCCl", "note": "(centres undefined)", "values": [{"measurement": "carcinogen call", "setting": "Species: DOG, Strain/Sex: MONGREL/MALE,FEMALE, Route: ORAL, Dose: 0, 500, 828-1420 PPM IN DIET FOR 3.5 YR, Dose: 0, 500, 828-1420 PPM IN DIET FOR 3.5 YR, Tumor Site: Type of Lesion: BILE DUCT: ADENOCARCINOMA, GALL BLADDER: ADENOCARCINOMA", "value": "active; positive"}, {"measurement": "carcinogen call", "setting": "Species: MOUSE, Strain/Sex: B6C3F1/MALE,FEMALE, Route: GAVAGE/ORAL, Dose: 464 MG/KG FROM D 7-28 OF LIFE THEN 1112 PPM IN DIET, Tumor Site: Type of Lesion: LIVER: HEPATOMA", "value": "active; positive"}, {"measurement": "carcinogen call", "setting": "Species: RAT, Strain/Sex: WISTAR/MALE,FEMALE, Route: ORAL, Dose: 500, 1580, 5000 PPM IN DIET FOR 2 YR, Dose: 500, 1580, 5000 PPM IN DIET FOR 2 YR, Tumor Site: Type of Lesion: LIVER: HEPATOMA, CHOLANGIOMA", "value": "active; positive"}]}, {"smiles": "Cc1cc(Cl)ccc1N", "values": [{"measurement": "carcinogen call", "setting": "Species: MOUSE, Strain/Sex: B6C3F1/FEMALE, Route: ORAL, Dose: 0, 1250, 5000 PPM IN DIET, Dose: 0, 1250, 5000 PPM IN DIET, Tumor Site: Type of Lesion: BLOOD VESSELS: HEMANGIOMA OR HEMANGIOSARCOMA", "value": "active; positive"}, {"measurement": "carcinogen call", "setting": "Species: MOUSE, Strain/Sex: B6C3F1/MALE, Route: ORAL, Dose: 0, 3750, 15000 PPM IN DIET, Dose: 0, 3750, 15000 PPM IN DIET, Tumor Site: Type of Lesion: BLOOD VESSELS: HEMANGIOMA OR HEMANGIOSARCOMA", "value": "active; positive"}, {"measurement": "carcinogen call", "setting": "Species: RAT, Strain/Sex: F344/FEMALE, Route: ORAL, Dose: 0, 1250, 5000 PPM IN DIET, Dose: 0, 1250, 5000 PPM IN DIET", "value": "inactive; negative"}, {"measurement": "carcinogen call", "setting": "Species: RAT, Strain/Sex: F344/MALE, Route: ORAL, Dose: 0, 1250, 5000 PPM IN DIET, Dose: 0, 1250, 5000 PPM IN DIET", "value": "inactive; negative"}]}, {"smiles": "CCCCCCCCCCCCCCN(C)N=O", "values": [{"measurement": "carcinogen call", "setting": "Species: RAT, Strain/Sex: F344/MALE, Route: GAVAGE, Dose: 0, 140 MG/ML IN CORN OIL 2/WK FOR 30 WK, STUDY DURATION: 110 WK, Dose: 0, 140 MG/ML IN CORN OIL 2/WK FOR 30 WK, STUDY DURATION: 110 WK, Tumor Site: Type of Lesion: BLADDER", "value": "active; positive"}]}]}
